# According to patent US10729643B2, “Methods for administration and methods for treating cardiovascular diseases with resiniferatoxin” (priority 2013, dated 2020):
# What was measured:
# [1] = tested on: myocardium of sham and CHF rats; test: Cardiac apoptosis: TUNEL staining and cleaved caspase 3; type: in vivo, rat
# From the text: This example illustrates the effects of RTX on cardiac fibrosis in sham and CHF rats. Considering that RTX-mediated reduction in LVEDP in CHF rats may be related to an improvement in cardiac compliance, we further evaluated cardiac fibrosis using picrosirus red staining and protein expression of two fibrotic markers (a smooth muscle actin and fibronectin) as well as their upstream activator, transforming growth factor (TGF) β receptor I in the non-infarcted LV and inter-ventricular septum (IVS) walls from sham and CHF rats treated with either vehicle or RTX. For histopathology, the rat heart was fixed in 10% phosphate buffered formalin, embedded in paraffin, and cut into 10 μm serial sections from apex to base. Picrosirius red staining was performed to detect myocardial fibrosis. Immunohistochemistry staining of cleaved caspase 3 (CC3) was also performed in paraffin sections from the same heart tissues which were used for picrosirius red staining experiments.
# This example illustrates effects of RTX on cardiac apoptosis in sham and CHF rats. Cardiac remodeling includes hypertrophy, fibrosis and apoptosis. Based on the beneficial effects of RTX on cardiac hypertrophy and cardiac fibrosis in CHF rats, we further investigated the effect of RTX on cardiac apoptosis in sham and CHF rats. TUNEL staining was performed. Terminal deoxynucleotidyl transferase dUTP-mediated nick-end labeling (TUNEL) staining and analysis was performed to evaluate the effect of RTX on cardiac apoptosis. Representative photomicrographs are depicted in FIG. 6A.
# [2] = tested on: nerve endings in the skin; conditions: topical administration at the nerve endings in the skin; cited from earlier work
# [3] = target: T1, TRPV1-expressing cardiac afferents (Rattus norvegicus, UniProt O35433); test: TRPV1 immunofluorescence in cardiac nerve endings after epicardial RTX; type: in vivo
# T1 construct: from tissue; host or cells: cardiac (epicardial) nerve endings of male Sprague-Dawley rats, in vivo
# Procedure: In order to desensitize cardiac sympathetic afferents in rats, resiniferatoxin (RTX, 1 mg; Sigma Aldrich) was dissolved in 2 ml of ethanol and mixed with 18 ml of Tween in isotonic saline. RTX (50 μg/ml) was applied twice on the entire left and right ventricles with a swab just prior to coronary ligation. The dose of RTX was determined by preliminary experiments in which we found nearly complete ablation of TRPV1-expressing cardiac nerve endings on the surface of the rat heart for more than 10 weeks. Rat surgery was performed 9-11 weeks post-MI. Rats were anesthetized with urethane (800 mg/kg ip) and α-chloralose (40 mg/kg ip). Renal sympathetic nerve activity (RSNA) and cardiac sympathetic nerve activity (CSNA) were recorded for evaluating basal renal and cardiac sympathetic tone.
# More specifically, we examined TRPV1 protein expression in cardiac nerve endings from vehicle and RTX-treated rats using immunofluorescence. Experiments were performed on male Sprague-Dawley rats weighing −400 to −500 g. […] Cardiac function in all experimental animals was measured 2 and 6 weeks after MI by echocardiography (VEVO 770, Visual Sonics, Inc.) as described in (Wang et al., J. Appl. Physiol. 2010; 108:1365-1375; Wang et al. 2, Am. J. Physiol. Regul. Integr. Comp. Physiol. 2012; 320:R1260-R1270; and Wang et al. 3, J. Physiol. 2010; 588:5033-5047). […]
# rats = conditions: subcutaneous and epidural administration; cited from earlier work
# IL-1 β = test: Cardiac inflammatory cytokine IL-1β levels after MI; type: in vivo, rat; conditions: epicardial RTX during MI; 1 day or 1 week after MI
# From the text: (§1) This example illustrates local anti-inflammatory effects of RTX in the infarcted heart. Myocardial ischemia causes the production and release of several metabolites including bradykinin, prostaglandins and protons that stimulate cardiac sympathetic afferent nerve endings leading to increases in BP, HR and sympathetic nerve activity. As cardiac TRPV1-expressing sympathetic afferents also subserve a “dual sensory-efferent” function and release pro-inflammatory neuropeptides, we hypothesized that plasma extravasation and cardiac neuroinflammation follows myocardial ischemia. […] Inflammation in the infarct area may be due to tissue death whereas in peri-infarct and remote areas may be due to cardiac sympathetic afferent mediated neuroinflammation. This may explain why RTX prevented cardiac inflammation in non-infarct areas to a greater extent than in the infarct area.
# [4] = tested on: infarcted heart / CSAR activation; test: Cardiac plasma extravasation (Evans Blue area); type: in vivo, rat
# From the text: as §1
# sham and CHF rats = test: Basal sympathetic tone (RSNA, CSNA, urinary NE) and arterial baroreflex function
# T1 sequence (O35433 whole entry): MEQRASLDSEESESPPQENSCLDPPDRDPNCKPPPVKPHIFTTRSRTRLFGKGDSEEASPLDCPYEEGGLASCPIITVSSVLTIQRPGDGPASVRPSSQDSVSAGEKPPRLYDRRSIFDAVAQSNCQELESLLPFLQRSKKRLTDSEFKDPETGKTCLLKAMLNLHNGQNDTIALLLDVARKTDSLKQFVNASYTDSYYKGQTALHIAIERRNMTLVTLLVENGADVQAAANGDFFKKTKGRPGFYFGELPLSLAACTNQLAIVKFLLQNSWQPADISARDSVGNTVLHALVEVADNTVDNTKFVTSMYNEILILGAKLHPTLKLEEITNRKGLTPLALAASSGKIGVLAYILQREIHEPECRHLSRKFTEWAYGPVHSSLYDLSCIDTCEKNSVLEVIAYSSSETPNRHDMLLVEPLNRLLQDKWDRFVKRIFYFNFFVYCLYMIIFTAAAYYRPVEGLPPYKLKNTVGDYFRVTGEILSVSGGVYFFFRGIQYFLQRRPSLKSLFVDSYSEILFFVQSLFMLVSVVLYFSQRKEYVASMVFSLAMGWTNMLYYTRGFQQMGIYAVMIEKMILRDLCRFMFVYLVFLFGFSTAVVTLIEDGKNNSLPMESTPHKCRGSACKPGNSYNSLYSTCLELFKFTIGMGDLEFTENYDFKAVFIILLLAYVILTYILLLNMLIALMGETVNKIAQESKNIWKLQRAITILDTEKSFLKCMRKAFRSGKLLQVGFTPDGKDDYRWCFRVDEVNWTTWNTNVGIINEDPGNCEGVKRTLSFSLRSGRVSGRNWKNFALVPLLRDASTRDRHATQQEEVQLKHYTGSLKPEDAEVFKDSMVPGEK
smiles,measurement,setting,value
"C=C(C)[C@]12C[C@@H](C)[C@@]34O[C@](Cc5ccccc5)(O[C@@H]1[C@@H]3C=C(COC(=O)Cc1ccc(O)c(OC)c1)C[C@]1(O)C(=O)C(C)=C[C@@H]41)O2 [RTX, resiniferatoxin]",TUNEL-positive cells,"[1]; LV infarct, LV peri-infarct, LV remote and IVS regions, CHF+RTX vs CHF+vehicle",markedly reduced
same,increased cleaved caspase 3-positive cardiomyocytes,"[1]; LV peri-infarct, LV remote and IVS regions, CHF rats, immunohistochemistry",largely prevented
same,elevated protein expression of cleaved caspase 3,"[1]; LV remote and IVS regions, CHF rats",prevented
same,difference in number of TUNEL-positive cells in the heart,[1]; sham+vehicle vs sham+RTX rats,no significant difference
same,sensitivity to chemical pain stimulation,[2],long-lasting insensitivity
same,TRPV1 immunoreactivity in the epicardium,"[3]; 1 week, 4-6 weeks and 9-11 weeks after epicardial RTX 50 μg/ml",absent
same,duration of nearly complete ablation of TRPV1-expressing cardiac nerve endings on the surface of the rat heart,"[3]; epicardial RTX 50 μg/ml, preliminary experiments",more than 10 weeks
same,duration of thermal analgesia with no restoration of pain sensitivity,rats,over 7 days
same,increased IL-1 β expression in peri-infarct and remote areas post MI,IL-1 β,markedly attenuated
same,increased IL-1 β level in the infarct area,IL-1 β,partially prevented
same,plasma extravasation following CSAR activation by epicardial capsaicin or bradykinin,[4]; chronic CSAR denervation by RTX,largely be abolished
same,cardiac plasma extravasation after MI (Evans Blue area),"[4]; epicardial RTX at the time of coronary ligation, day 1 to more than 1 week after MI",almost completely abolished
same,average slope and Gainmax of arterial baroreflex control of HR and RSNA,sham and CHF rats; CHF rats,significantly increased
same,basal RSNA and CSNA,sham and CHF rats; CHF rats,lowered
same,minimum HR and RSNA of arterial baroreflex control,sham and CHF rats; CHF rats,decreased
same,urinary NE excretion,sham and CHF rats; CHF+RTX vs vehicle treated rats,significantly reduced
same,"average slope, Gainmax, and minimum RSNA or HR of arterial baroreflex control",sham and CHF rats; sham rats,no significant effects
